# Key:
# [1] = test system: mRNA expressed from the genes (A) to (D) in rat liver; assay: Behavior of genes (mRNA expression level, oligo-DNA microarray) in rat liver after 28-day oral administration; format: in vivo
# How it was run: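 Oral gavage, once daily × 28 days; male F344 SPF rats, 5 wk, n=4/group; vehicle controls given equal solvent volume. Liver excised day 28, total RNA purified. Significance: ≥1.5× or ≤1/1.5 of vehicle, direction concordant with other carcinogens.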
# [2] = test system: liver; settings: classification Cr+/Cr−; cited from earlier work
# [3] = test system: rodent; settings: classification C+/C−; cited from earlier work
# [4] = classification M+/M−; cited from earlier work
smiles,measurement,setting,value
"C=CCc1ccc(OC)c(OC)c1 [TS086, Methyleugenol]",Behavior of gene caused by administration of chemical substance,"[1]; Gene No. 154, Rn.185941, group (C)",−
same,Behavior of gene caused by administration of chemical substance,"[1]; Gene No. 533, Rn.106184, group (C)",+
same,Behavior of gene caused by administration of chemical substance,"[1]; Gene No. 725, Rn.108075, group (C)",−
same,Behavior of gene caused by administration of chemical substance,"[1]; Gene No. 813, Rn.201760, group (C)",−
same,Behavior of gene caused by administration of chemical substance,"[1]; Gene No. 893, Rn.164817, group (C)",−
same,Behavior of gene caused by administration of chemical substance,"[1]; Gene No. 1119, Rn.9757, group (C)",−
same,Behavior of gene caused by administration of chemical substance,"[1]; Gene No. 1131, Rn.144946, group (C)",−
same,Behavior of gene caused by administration of chemical substance,"[1]; Gene No. 1163, Rn.11766, group (C)",−
same,Behavior of gene caused by administration of chemical substance,"[1]; Gene No. 1334, Rn.120914, group (C)",−
same,Behavior of gene caused by administration of chemical substance,"[1]; Gene No. 1494, Rn.1430, group (B)",−
same,Behavior of gene caused by administration of chemical substance,"[1]; Gene No. 1562, Rn.14744, group (C)",−
same,Behavior of gene caused by administration of chemical substance,"[1]; Gene No. 1741, Rn.1647, group (C)",−
same,Behavior of gene caused by administration of chemical substance,"[1]; Gene No. 1993, Rn.18728, group (C)",−
same,Behavior of gene caused by administration of chemical substance,"[1]; Gene No. 2026, Rn.167075, group (A)",−
same,Behavior of gene caused by administration of chemical substance,"[1]; Gene No. 2045, Rn.19329, group (B)",−
same,Behavior of gene caused by administration of chemical substance,"[1]; Gene No. 2203, Rn.21240, group (B)",−
same,Behavior of gene caused by administration of chemical substance,"[1]; Gene No. 2494, Rn.23969, group (C)",−
same,Behavior of gene caused by administration of chemical substance,"[1]; Gene No. 2546, Rn.24561, group (C)",−
same,Behavior of gene caused by administration of chemical substance,"[1]; Gene No. 3776, Rn.43232, group (C)",−
same,Behavior of gene caused by administration of chemical substance,"[1]; Gene No. 3929, Rn.4620, group (C)",−
same,Behavior of gene caused by administration of chemical substance,"[1]; Gene No. 4095, Rn.119024, group (C)",−
same,Behavior of gene caused by administration of chemical substance,"[1]; Gene No. 4218, Rn.167075, group (A)",−
same,Behavior of gene caused by administration of chemical substance,"[1]; Gene No. 4846, Rn.144554, group (A)",+
same,Behavior of gene caused by administration of chemical substance,"[1]; Gene No. 4973, Rn.118529, group (C)",−
same,Behavior of gene caused by administration of chemical substance,"[1]; Gene No. 5600, Rn.9836, group (A)",+
same,Behavior of gene caused by administration of chemical substance,"[1]; Gene No. 5634, Rn.9862, group (C)",−
same,Behavior of gene caused by administration of chemical substance,"[1]; Gene No. 5726, Rn.9939, group (D)",−
same,Behavior of gene caused by administration of chemical substance,"[1]; Gene No. 5878, Rn.143213, group (C)",−
same,Behavior of gene caused by administration of chemical substance,"[1]; Gene No. 6026, Rn.167685, group (C)",−
same,Behavior of gene caused by administration of chemical substance,"[1]; Gene No. 6182, Rn.5834, group (A)",+
same,Behavior of gene caused by administration of chemical substance,"[1]; Gene No. 6303, Rn.123063, group (C)",−
same,Behavior of gene caused by administration of chemical substance,"[1]; Gene No. 6620, Rn.120914, group (C)",−
same,Behavior of gene caused by administration of chemical substance,"[1]; Gene No. 6742, Rn.9779, group (C)",−
same,Liver carcinogenicity,[2],Cr+
same,Carcinogenicity,[3],C+
same,Mutagenicity by Ames test,[4],M−

# Source: patent US20110039721A1, “METHOD FOR PREDICTION ABOUT CARCINOGENICITY OF SUBSTANCE IN RODENT” (Chemicals Evaluation and Research Institute, priority 2007, published 2011)
